Key:
[1] = system: rat model of pulmonary arterial hypertension (PAH), monocrotaline (MCT) induced; test: monocrotaline rat model of pulmonary arterial hypertension; format: in vivo, Sprague Dawley rats
Protocol: The effects of an ActRIIA-mFc fusion protein (ActRIIA-mFc homodimer as described in Example 1), an ALK4-Fc-ActRIIB-Fc heterodimer (as described in Examples 12 and 13), and sildenafil (a phosphodiesterase-5 inhibitor approved for the treatment of PAH) were examined in a rat model of pulmonary arterial hypertension (PAH). In this model, Sprague Dawley rats received a […] injection of monocrotaline (MCT) to induce PAH 24 hours prior to start of therapy.
Rats were separated into different treatment groups (10 mice per group): 1) treatment with MCT (60 mg/kg administered i.p. as a single dose at day 1 of study) and Tris buffered saline (i.p. as 1 ml/kg, every three days) (vehicle treatment group), 2) treatment with an ActRIIA-mFc polypeptide (10 mg/kg administered i.p. every three days) and MCT (60 mg/kg administered i.p. as a single dose at day 1 of study), 3) treatment with an ALK4-Fc:ActRIIB-Fc heterodimer (10 mg/kg administered i.p. every three days) and MCT (60 mg/kg administered i.p. as a single dose at day 1 of study), 4) treatment with sildenafil (30 mg/kg administered orally twice daily) and MCT (60 mg/kg administered i.p. as a single dose at day 1 of study), and 5) control rats (Tris buffered saline administered i.p. as 1 ml/kg, every three days). Rats were treated for 28 days. Body weights were recorded prior to first dose on Day 1 and then weekly throughout the study.
On day 28, rats were anesthetized by an intraperitoneal injection of ketamine/xylazine (80/10 mg/kg). An incision was made in the neck, and a jugular vein was isolated and ligated anteriorly. A fluid-filled pressure catheter was introduced into the right jugular vein to measure pulmonary artery pressure (PAP). Another incision was made in the inguinal region, and femoral artery was isolated and ligated anteriorly. A Millar pressure catheter was introduced into a femoral artery to measure systolic arterial pressure, diastolic pressure, and heart rate. Mean arterial pressure and right PAP were monitored using the Notocord HEM (Croissy sur Seine, Frnace) v3.5 data capture system for approximately 5-10 minutes until stable measurements were obtained. During the measurements, rats were maintained at approximately 37° C. on a heating pad and body temperature was monitored throughout the procedure with a rectal temperature probe. At the conclusion of the procedure, rats were euthanized, and the hearts and lungs were removed. The entire heart was weighed. Next, the atria were removed and the left ventricle with septum (LV+S) was separated from the right ventricle (RV). The ventricles were weighed separately. Hypertrophy was assessed, in part, by calculating RV/LV+S. The lungs were also weighed.
Similar trends were observed on vessel muscularity based on histopathologic scoring. After staining tissue samples to detect αSMA/elastin, 100 pulmonary arterioles, between 10 μm and 50 μm in size, per animal were categorized as non-muscularized, partially muscularized, or completely muscularized. Pulmonary arterioles from vehicle treated rats were determined to be 62.3% completely muscularized, 36.4% partially muscularized, and 1.4% non-muscularized. […] Histopathological scoring of smooth muscle hypertrophy of pulmonary arterioles were also recorded as follows: 0 (normal), 1 (minimal), 2 (mild), 3 (moderate), or 4 (marked).

[2] = system: Sugen Hypoxia model of PAH (semaxanib/hypoxia); test: Sugen Hypoxia rat model of PAH; format: in vivo; details: 0 normal, 1 minimal, 2 mild, 3 moderate, 4 marked
Protocol: The effects of an ActRIIA-mFc fusion protein (ActRIIA-mFc homodimer as described in Example 1 and sildenafil (a phosphodiesterase-5 inhibitor approved for the treatment of PAH) were further examined the Sugen Hypoxia model of PAH. In this model, rats receive daily doses of semaxanib and are placed in a low oxygen environment (approximately 13% oxygen) to induce PAH 24 hours prior to start of therapy.
Rats were separated into different treatment groups (10 mice per group): 1) treatment with semaxanib (200 mg/kg administered s.c. as a single dose daily)/hypoxia and Tris buffered saline (administered i.p. as 1 ml/kg, every three days) (vehicle treatment group), 2) treatment with an ActRIIA-mFc polypeptide (10 mg/kg administered i.p. every three days) and semaxanib (200 mg/kg administered s.c. as a single dose daily)/hypoxia, 3) treatment with sildenafil (30 mg/kg administered orally twice daily) and semaxanib (200 mg/kg administered s.c. as a single dose daily)/hypoxia, and 4) control rats (Tris buffered saline administered i.p. as 1 ml/kg, every three days). Rats were treated for 28 days. Body weights were recorded prior to first dose on Day 1 and then weekly throughout the study.
On day 28, rats were anesthetized by an intraperitoneal injection of ketamine/xylazine (80/10 mg/kg). […] Hypertrophy was assessed, in part, by calculating RV/LV+S. The lungs were also weighed. […]

BMP10 = target: T1, BMP10 (Homo sapiens, UniProt O95393); test: Biacore ligand affinity (Example 10); format: binding; details: Smad 1/5/8 ligand
T1 sequence (O95393 317-424): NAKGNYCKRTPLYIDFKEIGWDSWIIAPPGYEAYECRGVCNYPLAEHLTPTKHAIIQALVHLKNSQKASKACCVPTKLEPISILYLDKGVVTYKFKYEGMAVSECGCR
Protocol: (§1) The affinity of GDF traps and other ActRIIB-hFc proteins for several ligands was evaluated in vitro with a Biacore™ instrument. Kd values were obtained by steady-state affinity fit due to the very rapid association and dissociation of the complex, which prevented accurate determination of kon and koff.

BMP6 = target: T2, BMP6 (Homo sapiens, UniProt P22004); test: Biacore ligand affinity (Example 10); format: binding; details: Smad 1/5/8 ligand
T2 sequence (P22004 375-513): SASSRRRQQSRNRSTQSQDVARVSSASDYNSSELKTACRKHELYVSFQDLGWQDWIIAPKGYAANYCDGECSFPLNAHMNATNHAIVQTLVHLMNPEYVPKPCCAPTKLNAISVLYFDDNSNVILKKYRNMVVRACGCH
Protocol: as §1

GDF8 = target: T3, GDF8 (Homo sapiens, UniProt O14793); test: Biacore ligand affinity (Example 10); format: binding; details: Smad 2/3 signaling ligand
T3 sequence (O14793 267-375): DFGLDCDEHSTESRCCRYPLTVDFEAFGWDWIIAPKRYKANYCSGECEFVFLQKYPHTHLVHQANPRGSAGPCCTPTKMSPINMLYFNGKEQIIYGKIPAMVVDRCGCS
Protocol: as §1

## ActRIIA-mFc: extracellular domain of human ActRIIa fused to a mouse Fc domain with a minimal linker; homodimer
[1]; 0 normal, 1 minimal, 2 mild, 3 moderate, 4 marked
  smooth muscle hypertrophy of pulmonary arterioles, average histopathological score: 1.6 score
[1]; 28 days, compared to monocrotaline treated rats, proteins 10 mg/kg i.p. every three days, sildenafil 30 mg/kg orally twice daily
  improvement in body weight: did not show improvement
[2]
  smooth muscle hypertrophy of pulmonary arterioles, average histopathological score: 1.4 score

## ActRIIB(L79D 25-131)-hFc: GDF trap with truncated ActRIIB extracellular domain (residues 25-131, L79D) fused to human Fc (SEQ ID NO: 78)
BMP10
  binding to BMP10: strong to intermediate binding
BMP6
  binding to BMP6: strong to intermediate binding
GDF8
  binding to GDF8: strong to intermediate binding
